From US6531499B2, “Matrix metalloproteinase inhibitors and method of using same” (Wisconsin Alumni Research Foundation, priority 1999, dated 2003)

Experiments:
F442A fibroblast = format: cell-based; settings: concentrations up to 100 μM; 6 to 24 hours in serum-free medium
Experimental: Toxicity of the compounds was determined by incubating several log doses of the compound and solvent controls for 6 to 24 hours in serum-free medium. The cell number was then determined by comparing the absorbance of crystal violet with controls, and cell death determined by trypan blue dye exclusion in conventional and well known fashion. The model cell line used was a murine fibroblast cell line designated F442A, which was generously provided by Dr. Howard Green of Harvard University.
The compounds were cleaved from the beads into a single solution and tested in this combined fashion.

HiMel cells = test: In vitro invasion assay: HiMel cell penetration of […] (Transwell); format: cell-based, human; settings: same assay as Example 3; concentration not given
From the text: An 8 μm pore filter coated with “[…]” separates a series of lower compartments containing a chemoattractant and a corresponding series of upper compartments containing metastatic and non-metastatic cells and a compound to be tested. The metastatic cells are able to degrade the “[…]” barrier and, over a period of time, migrate through the pores of the filter whereas non-metastatic cells remain on the upper surface. The cells that pass to the underside of the filter are counted under a microscope to determine the extent to which they are able to pass from the upper compartment into the lower compartment. […]
This method has been refined to increase the number of assays which may be performed and analyzed per day. […] Motility of the cells through the 8 μm filters is not by passive diffusion since the pore size is smaller than the cells, and is determined in the same chamber in the absence of “[…]”. […]
Compounds to be tested were dissolved in DMSO and were added in serial dilutions of 0 (control) 1, and 10 μM. […] Invasive cells found on the under side of the filter were measured by solubilizing the stain in 10% acetic acid 20% methanol and reading the absorbance at 595 nm.

MMP-2 = target: T1, MMP-2 (Homo sapiens, UniProt P08253); test: Colorimetric 96-well thiopeptolide collagenase assay; format: biochemical; settings: change in absorbance at 405 nm
T1 sequence (P08253 110-660): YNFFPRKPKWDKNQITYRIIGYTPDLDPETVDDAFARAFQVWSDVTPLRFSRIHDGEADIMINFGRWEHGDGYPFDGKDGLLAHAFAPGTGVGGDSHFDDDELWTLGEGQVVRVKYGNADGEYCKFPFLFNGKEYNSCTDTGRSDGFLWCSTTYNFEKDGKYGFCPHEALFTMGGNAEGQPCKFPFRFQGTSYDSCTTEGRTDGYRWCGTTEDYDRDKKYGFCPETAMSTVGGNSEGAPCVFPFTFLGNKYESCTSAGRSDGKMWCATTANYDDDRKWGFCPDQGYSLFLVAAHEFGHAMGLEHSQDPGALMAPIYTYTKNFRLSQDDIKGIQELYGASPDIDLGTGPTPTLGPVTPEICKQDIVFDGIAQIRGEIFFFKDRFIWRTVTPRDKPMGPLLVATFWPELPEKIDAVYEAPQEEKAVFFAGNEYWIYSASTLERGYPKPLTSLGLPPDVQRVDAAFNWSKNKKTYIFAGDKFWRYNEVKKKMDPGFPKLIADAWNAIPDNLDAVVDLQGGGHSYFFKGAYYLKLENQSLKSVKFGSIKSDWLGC
Experimental: The preferred assay method to measure MMP inhibitory activity is a colorimetric assay which can be monitored spectrophotometrically. Specifically, the ability of the subject matrix metalloproteinase inhibitors to suppress MMP-2 or MMP-9 activity is assessed using a colorimetric 96-well thiopeptolide collagenase assay as described by Xia et al. (Xia T, Akers K, Eisen A Z and Seltzer J L. (1996) Biochim et Biophy Acta. 1293:259). This protocol entails the cleavage of a thiopeptolide substrate AcProLeuGly-S-LeuGlyOC2H5 (Bachem Bioscience, Cat # H7145) by MMP-2 or MMP-9, giving a free sulfhydryl group. The free —SH then reacts with DTNB (Ellman's reagent, 5,5′-dithio-bis(2-nitrobenzoic acid)) giving a colored molecule whose formation can be examined spectrophotometrically at 405 nm.
The thiopeptolide substrate (5 μL/well, 5 mM in DMF), DTNB (15 μL/well, 10 mM in 50 mM HEPES, 10 mM CaCl2, pH 6.92), and matrix metalloproteinase inhibitors or DMSO (total volume equal to 5 μL/well) are mixed in a 96-well plate (Falcon). A single row of wells is used for each matrix metalloproteinase inhibitor and various inhibitor concentrations are used to control for row to row variation in collagenase activity. The reaction is then initiated by pipeting 130 μL of a solution of collagenase buffer (126 μL/well, 50 mM HEPES, 10 mM CaCl2, pH 6.92) and activated MMP-2 or MMP-9 (4 μL/well, 0.05 M borate, pH 7.46, 5 mM CaCl2 , 20% glycerol, 0.0005% Brij-35) into a row of wells using a 12-channel multipipeter. The change in absorbance from 0-20 minutes is then monitored at 405 nm using an ELX 800 automated microplate reader (Bio-Tek Instruments, Inc., Winooski, Vt.). The change in absorbance is calculated and graphed.
The thiopeptolide substrate AcProLeuGly-S-LeuGlyOC2H5 (5 μL/well, 5 mM in DMF), DTNB (15 μL/well, 10 mM in 50 mM HEPES, 10 mM CaCl2, pH 6.92), and matrix metalloproteinase inhibitors or DMSO (total volume equal to 5 μL/well) were mixed in a 96-well plate. A single row of wells was used for each concentration of the test compound and concentrations of 10, 20, and 40 μM of the test compound were used. The reaction was then initiated by pipeting 130 μL of a solution of collagenase buffer (126 μL/well, 50 mM HEPES, 10 mM CaCl2, pH 6.92) and activated MMP-2 (4 μL/well, 0.05 M borate, pH 7.46, 5 mM CaCl2, 20% glycerol, 0.0005% Brij-35) into a row of wells using a 12-channel multipipeter. The change in absorbance from 0-20 minutes was then monitored at 405 nm. The change in absorbance was calculated and graphed; the results are depicted in FIG. 4.

[1] = 0 (control), 40, 80, and 160 μM

Compound	effect on the growth / viability of fibroblasts (F442A fibroblast)	inhibition of HiMel MATRIGEL invasion as compared to the control (HiMel cells)	inhibition of MMP-2 collagenase activity (MMP-2; 10, 20, and 40 μM, 0-20 minutes)	inhibition of MMP-2 collagenase activity (MMP-2; [1])
O=C(CN(Cc1ccccc1)C(=O)CN(CCCc1ccccc1)C(=O)Nc1ccc(Oc2ccccc2)cc1)NO	no significant effect	approximately 50%	inhibited MMP-2 collagenase activity in a dose-dependent manner	
O=C(CN(CCCCc1ccccc1)C(=O)CN(CCCc1ccccc1)C(=O)Nc1ccc(Oc2ccccc2)cc1)NO	no significant effect			inhibits MMP-2 collagenase activity in a dose-dependent fashion
NC(=O)CN(Cc1ccccc1)C(=O)CN(CCCc1ccccc1)C(=O)Nc1ccc(Oc2ccccc2)cc1				inhibits MMP-2 collagenase activity in a dose-dependent fashion
O=C(Nc1ccc(Oc2ccccc2)cc1)Nc1ccc(Oc2ccccc2)cc1				inhibits MMP-2 collagenase activity in a dose-dependent fashion
O=C(Nc1ccc(Oc2ccccc2)cc1)Nc1ccc(-c2ccccc2)cc1		approximately 50%		inhibits MMP-2 collagenase activity in a dose-dependent fashion
